# Experimental data taken from article PMC8241751, “Influence of the Dabcyl group on the cellular uptake of cationic peptides: short oligoarginines as efficient cell-penetrating peptides” (Amino Acids, 2021).
# Several values for one entry are separate records, joined by “and”; a condition that tells them apart may be missing. Equal entries are not always repeated. Where a SMILES comes first, the peptide text is derived from it. The star is where a group is joined. 5FAM = O=C1OC2(c3ccc(O)cc3Oc3cc(O)ccc32)c2ccc(C(=O)*)cc21; X1 = CN(C)c1ccc(/N=N/c2ccc(C(=O)*)cc2)cc1
# Experiments:
# CHO-K1 cells [1] = test: Relative quantification of total internalised peptide by flow cytometry; conditions: CHO-K1, 1 h, DMEM-F12, internalisation ratio by flow cytometry, intact cells, 20.000 cells
# Description: After incubation and washing the cells with HBSS, 500 μL 0.05% trypsin/EDTA 0.05% (37 °C) or 500 µL pronase 0.05% in 100 mM Tris-buffer (4 °C) was added for 5 min to hydrolyze the remaining extracellular peptide, the membrane-bound peptide and to detach cells. After addition of 100 µL enzyme inhibitors (complete mini at 4 °C (Roche) or trypsin inhibitor (soybean inhibitor 5 mg/mL) at 37 °C mixed with 100 μL bovine serum albumin (1 mg/mL). Cells were transferred into a microtube, centrifuged, washed with 1 mL 50 mM Tris-buffer pH 7.4, 0.1% BSA, and the cell pellet was suspended in 400 μL of PBS. The fluorescence of individual cells was analysed with a FACS Calibur flow cytometer. 20.000 cells were measured for each experimental condition. The mean fluorescence of a sample was obtained by subtracting the autofluorescence of cells from the measured mean fluorescence of cells in the presence of the peptide.
# HL-60 cells [2] = test: Cellular uptake by flow cytometry on HL-60 cells; format: cell-based, human; conditions: HL-60, 90 min, 37 °C, serum-free, concentrations of the two values not stated, Dabcyl quenches Cf
# Description: HL-60 cells were cultured as described above. To study the cellular uptake of fluorescent labelled compounds, 10^5 cells per well were plated on 24-well plates. After 24 h incubation at 37 °C, cells were treated with the compounds solved in the corresponding serum-free media for 90 min. The cellular uptake was analysed at 1, 5 and 10 µM concentrations. Cells treated with serum-free media for 90 min were used as control. After incubation, treatment solutions were removed and the cells were treated with 100 μL trypsin for 2 min to remove the membrane proteins in order to eliminate non-specific binding of conjugates. The effect of trypsin was terminated by 900 μL HPMI (glucose, NaHCO3, NaCl, HEPES, KCl, MgCl2, CaCl2, Na2HPO4·2H2O) (Kapus et al. [1994]) containing 10% foetal calf serum, and the cells were transferred from the plate to FACS-tubes. Cells were centrifuged at 216 g at 4 °C for 5 min and the supernatant was removed. After this procedure, cells were resuspended in 500 µL HPMI, and the intracellular fluorescence intensity of HL-60 cells was monitored (on channel FITC LP505; emission at λ = 505 nm; LP 505, BP 530/30) by flow cytometry (BD LSR II, BD Bioscience, San Jose, CA, equipped with 488 nm; Coherent Sapphire, 22 mW laser.) which is proportional to the cellular uptake. Data were analysed with FACSDiVa 5.0 software.
# CHO-K1 cells [3] = test: Absolute quantification of total internalised peptide by fluorometry; conditions: for Total (37 °C–4 °C) (pmoles) Endocyt. / 4 °C/37 °C (Fluoro): CHO-K1, 60 min; for Total (37 °C–4 °C) (pmoles) Endocyt.: difference of fluorometry values at 37 °C and 4 °C; for 4 °C/37 °C (Fluoro): internalisation ratio by fluorometry; for Total 4 °C (pmoles) Transloc. / Total 37 °C (pmoles) Endocyt. + Transloc.: one million CHO-K1 cells, DMEM-F12, 60 min, cell lysis, fluorometry 525 nm vs calibration curve, mean values; for Total 4 °C (pmoles) Transloc.: pronase wash; for Total 37 °C (pmoles) Endocyt. + Transloc.: trypsin wash
# Description: We used the quantification method described earlier (Illien et al. [2016]). […] After incubation with peptides and washing the cells with HBSS, 500 μL 0.05% trypsin/EDTA 0.05% (37 °C) or 500 µL pronase 0.05% in 100 mM Tris pH 7.4 (4 °C) was added for 5 min to hydrolyze the remaining extracellular peptide, the membrane-bound peptide and to detach cells. After addition of 100 µL enzyme inhibitors (complete mini at 4 °C (Roche) or trypsin inhibitor (soybean inhibitor 5 mg/mL) at 37 °C mixed with 100 μL bovine serum albumin (1 mg/mL), cells were transferred into a microtube, centrifuged, washed with 1 mL 50 mM Tris buffer pH 7.4, 0.1% BSA, and lysed in 200 μL 50 mM Tris pH 7.4, 1 M NaCl, 1% Nonident P40. The samples were then sonicated for 15 min (to homogenise samples) and centrifugated for 10 min at 16.000 g. Fluorescence intensity in the supernatants was monitored with a MOS 200 M fluorimeter (Biologic SAS) and the maximal intensity was detected around λ = 525 nm. The maximal intensity was retained for the calibration curve and for quantification of samples. The amount of internalised peptides was calculated by comparing the fluorescence intensity of the sample with the calibration curve. For the calibration curve, we prepared a range of peptide amounts (from 2 to 500 pmol) in the lysis buffer (50 mM Tris pH 7.4, 1 M NaCl, 1% Nonidet P40) in the presence of one million suspended cells. The samples were sonicated 15 min and centrifuged at 16.000 g for 10 min. Fluorescence intensity in the supernatants was monitored with a MOS 200 M fluorimeter (Biologic SAS, France) and the maximal intensity was detected around λ = 525 nm. The fluorescence signal of peptides only was obtained by subtracting the fluorescence intensity of cell lysates (autofluorescence) from the fluorescence intensity of the sample.
# MCF-7 cells = test: In vitro cytostatic activity (MTT) on MCF-7; format: cell-based, human; conditions: 3 h incubation, then 3 days in serum-containing medium, MTT assay, ± sd, three independent experiments with four parallels
# Description: The cells (HL-60 or MCF-7) were grown to confluency and were plated into 96-well plate with initial cell number of 5 × 10^3 per well. After 24 h incubation at 37 °C, cells were treated with the compounds at 1.28 × 10^–3–100 μM concentration range for 3 h in 200 μL final volume. Control cells were treated with serum free medium at 37 °C for 3 h. After incubation the cells were washed twice with serum free medium. For the analysis of the in vitro cytostatic effect, cells were cultured for an additional 72 h in serum containing medium. On day 4, MTT assay was carried out to determine the IC50 values of the compounds. Briefly, 45 μL of MTT solution was added to each well (2 mg/mL, dissolved in serum-free medium). […] The precipitated purple crystals were dissolved in 100 μL DMSO and the absorbance was determined at λ = 540 nm and λ = 620 nm using ELISA plate reader (iEMSReader, Labsystems, Finland). The percent of cytostasis was calculated using the following equation: Cytostatic effect (%) = [1 − (ODtreated/ODcontrol)] × 100; where ODtreated and ODcontrol correspond to the optical densities of the treated and the untreated control cells, respectively. […] The curves were defined using MicrocalTM Origin (version 9.2) software: cytostasis was plotted as a function of concentration, fitted to a sigmoidal curve, and based on this curve, the IC50 value was determined.
# MDA-MB-231 cells = test: In vitro cytostatic activity (MTT) on MDA-MB-231; format: cell-based, human; conditions: 3 h incubation, then 3 days in serum-containing medium, MTT assay, ± sd
# HL-60 cells [4] = test: In vitro cytostatic activity (MTT) on HL-60; format: cell-based, human; conditions: HL-60; 3 h incubation, then 3 days in serum-containing medium; MTT assay; ± sd, three independent experiments with four parallels
# Description: The cells (HL-60 or MCF-7) were grown to confluency and were plated into 96-well plate with initial cell number of 5 × 10^3 per well. After 24 h incubation at 37 °C, cells were treated with the compounds at 1.28 × 10^–3–100 μM concentration range for 3 h in 200 μL final volume. Control cells were treated with serum free medium at 37 °C for 3 h. After incubation the cells were washed twice with serum free medium. For the analysis of the in vitro cytostatic effect, cells were cultured for an additional 72 h in serum containing medium. On day 4, MTT assay was carried out to determine the IC50 values of the compounds. Briefly, 45 μL of MTT solution was added to each well (2 mg/mL, dissolved in serum-free medium). Following the 4 h incubation, plates were centrifuged at 900 g for 5 min, and the supernatant was removed. The precipitated purple crystals were dissolved in 100 μL DMSO and the absorbance was determined at λ = 540 nm and λ = 620 nm using ELISA plate reader (iEMSReader, Labsystems, Finland). The percent of cytostasis was calculated using the following equation: Cytostatic effect (%) = [1 − (ODtreated/ODcontrol)] × 100; where ODtreated and ODcontrol correspond to the optical densities of the treated and the untreated control cells, respectively. In each case three independent experiments were carried out with four parallel measurements. […] The curves were defined using MicrocalTM Origin (version 9.2) software: cytostasis was plotted as a function of concentration, fitted to a sigmoidal curve, and based on this curve, the IC50 value was determined.
compound,measurement,setting,value
CN(C)c1ccc(/N=N/c2ccc(C(=O)N[C@@H](CCCNC(=N)N)C(=O)N[C@@H](CCCNC(=N)N)C(=O)N[C@@H](CCCNC(=N)N)C(=O)N[C@@H](CCCNC(=N)N)C(=O)N[C@@H](CCCCNC(=O)c3ccc4c(c3)C(=O)OC43c4ccc(O)cc4Oc4cc(O)ccc43)C(N)=O)cc2)cc1 [Dabcyl–Arg4–Lys(Cf)–NH2] (X1-RRRRK(5FAM)-NH2),4 °C/37 °C (Flow cyto.),CHO-K1 cells [1]; [peptide] 1 μM,0.17
same,4 °C/37 °C (Flow cyto.),CHO-K1 cells [1]; [peptide] 2.5 μM,0.12
same,4 °C/37 °C (Flow cyto.),CHO-K1 cells [1]; [peptide] 5 μM,0.10
same,4 °C/37 °C (Flow cyto.),CHO-K1 cells [1]; [peptide] 10 μM,0.04
same,"Fluorescence intensity of the cells, times higher than hexaarginine",HL-60 cells [2],1.6 times and 2.8 times
same,Total (37 °C–4 °C) (pmoles) Endocyt.,CHO-K1 cells [3]; [peptide] 1 μM,0.3 pmol
same,4 °C/37 °C (Fluoro),CHO-K1 cells [3]; [peptide] 1 μM,0.57
same,Total 4 °C (pmoles) Transloc.,CHO-K1 cells [3]; [peptide] 1 μM,0.4 ± 0.06 pmol
same,Total 37 °C (pmoles) Endocyt. + Transloc.,CHO-K1 cells [3]; [peptide] 1 μM,0.7 ± 0.1 pmol
same,Total (37 °C–4 °C) (pmoles) Endocyt.,CHO-K1 cells [3]; [peptide] 2.5 μM,1.3 pmol
same,4 °C/37 °C (Fluoro),CHO-K1 cells [3]; [peptide] 2.5 μM,0.43
same,Total 4 °C (pmoles) Transloc.,CHO-K1 cells [3]; [peptide] 2.5 μM,0.9 ± 0.1 pmol
same,Total 37 °C (pmoles) Endocyt. + Transloc.,CHO-K1 cells [3]; [peptide] 2.5 μM,2.2 ± 0.2 pmol
same,Total (37 °C–4 °C) (pmoles) Endocyt.,CHO-K1 cells [3]; [peptide] 5 μM,6 pmol
same,4 °C/37 °C (Fluoro),CHO-K1 cells [3]; [peptide] 5 μM,0.22
same,Total 4 °C (pmoles) Transloc.,CHO-K1 cells [3]; [peptide] 5 μM,1.8 ± 0.1 pmol
same,Total 37 °C (pmoles) Endocyt. + Transloc.,CHO-K1 cells [3]; [peptide] 5 μM,7.8 ± 0.9 pmol
same,Total (37 °C–4 °C) (pmoles) Endocyt.,CHO-K1 cells [3]; [peptide] 10 μM,26 pmol
same,4 °C/37 °C (Fluoro),CHO-K1 cells [3]; [peptide] 10 μM,0.14
same,Total 4 °C (pmoles) Transloc.,CHO-K1 cells [3]; [peptide] 10 μM,4.2 ± 0.3 pmol
same,Total 37 °C (pmoles) Endocyt. + Transloc.,CHO-K1 cells [3]; [peptide] 10 μM,30 ± 3.3 pmol
Dabcyl–RRRRRRK(MTX)–NH2 [Dabcyl–Arg6–Lys(MTX)–NH2],IC50,MCF-7 cells,46.4 ± 18.5 µM
same,IC50,MDA-MB-231 cells,50.2 ± 16 µM
Dabcyl–RRRRK(MTX)–NH2 [Dabcyl–Arg4–Lys(MTX)–NH2],IC50,MDA-MB-231 cells,70.9 ± 30.1 µM
"COc1cccc2c1C(=O)c1c(O)c3c(c(O)c1C2=O)C[C@@](O)(C(C)=O)C[C@@H]3O[C@H]1C[C@H](NC(=O)CCC(=O)O)[C@H](O)[C@H](C)O1 [Suc–Dau, reference compound]",IC50,MCF-7 cells,24.5 ± 7.1 µM
same,IC50,HL-60 cells [4],33.5 ± 1.1 µM
same,IC50,MDA-MB-231 cells,> 100 µM
